Experimental data reported in US20210024455A1 (priority 2018, published 2021).

Key:
TRF2 = biological target: T1, TRF2 (Homo sapiens, UniProt Q15554); assay: biochemical; type: binding; settings: read-out: inhibition rate (%) in DSE FRET assay
T1 sequence (Q15554 1-542): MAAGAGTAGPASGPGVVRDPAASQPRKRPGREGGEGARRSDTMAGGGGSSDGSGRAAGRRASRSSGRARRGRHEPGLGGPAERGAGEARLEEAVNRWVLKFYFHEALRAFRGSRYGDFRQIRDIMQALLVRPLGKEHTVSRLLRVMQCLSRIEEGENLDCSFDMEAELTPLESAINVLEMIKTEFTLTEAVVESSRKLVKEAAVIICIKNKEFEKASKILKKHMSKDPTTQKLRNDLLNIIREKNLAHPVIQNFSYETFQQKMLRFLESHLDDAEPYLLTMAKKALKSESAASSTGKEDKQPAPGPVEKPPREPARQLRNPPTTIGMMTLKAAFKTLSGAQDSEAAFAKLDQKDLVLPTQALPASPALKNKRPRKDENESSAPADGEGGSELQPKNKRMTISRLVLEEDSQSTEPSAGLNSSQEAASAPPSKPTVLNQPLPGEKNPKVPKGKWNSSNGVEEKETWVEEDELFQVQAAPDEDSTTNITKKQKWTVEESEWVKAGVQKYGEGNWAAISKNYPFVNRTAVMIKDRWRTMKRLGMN

HeLa1.2.11 cells = assay: cells; type: cell-based; settings: read-out: IC50, suppressing proliferation of HeLa1.2.11 cells

**Q.** For `CC(=O)c1ccc(N(c2ccc(C)cc2)c2ccccc2Oc2c([N+](=O)[O-])cc([N+](=O)[O-])cc2[N+](=O)[O-])cc1` [compound 225], which inhibition at 50 µM (TRF2) is on record?
**A.** 36.9%

**Q.** What about the IC50 (HeLa1.2.11 cells) of the same compound?
**A.** 28 µM

**Q.** Which inhibition at 50 µM (TRF2) does the source give for `COc1ccc(N(c2ccccc2)c2ccccc2Oc2c([N+](=O)[O-])cc([N+](=O)[O-])cc2[N+](=O)[O-])cc1` [compound 204] here?
**A.** 20.4%

**Q.** What about the IC50 (HeLa1.2.11 cells) of the same compound?
**A.** 20 µM

**Q.** How did the inhibition at 50 µM (TRF2) turn out when `COc1ccc(N(c2ccccc2)c2cc(C(C)(C)C)ccc2Oc2c([N+](=O)[O-])cc([N+](=O)[O-])cc2[N+](=O)[O-])cc1` [compound #207] was run?
**A.** 23.7%

**Q.** And the IC50 (HeLa1.2.11 cells)?
**A.** 19 µM

**Q.** How did the inhibition at 50 µM (TRF2) turn out when `Cc1cc([N+](=O)[O-])cc([N+](=O)[O-])c1Oc1ccccc1N(c1ccccc1)c1ccc(C(C)(C)C)cc1` [compound 228] was run?
**A.** 11.8%

**Q.** What about the IC50 (HeLa1.2.11 cells) of the same compound?
**A.** 20 µM

**Q.** With `CC(=O)c1ccc(N(c2ccc(C(C)(C)C)cc2)c2ccccc2Oc2c([N+](=O)[O-])cc([N+](=O)[O-])cc2[N+](=O)[O-])cc1` [compound 227] as the compound, how does the inhibition at 50 µM (TRF2) read?
**A.** 18.4%

**Q.** What about the IC50 (HeLa1.2.11 cells) of the same compound?
**A.** 18 µM

**Q.** For `CC(=O)c1ccc(N(c2ccccc2)c2ccccc2Oc2c([N+](=O)[O-])cc([N+](=O)[O-])cc2[N+](=O)[O-])cc1` [compound 168], which inhibition at 50 µM (TRF2) is on record?
**A.** 25.5%

**Q.** And the IC50 (HeLa1.2.11 cells)?
**A.** 43 µM

**Q.** Which results are given for `CC(=O)c1ccc(N(c2ccccc2)c2cc(C(C)(C)C)ccc2Oc2c([N+](=O)[O-])cc([N+](=O)[O-])cc2[N+](=O)[O-])cc1` [compound 201]?
**A.** inhibition at 50 µM (TRF2): 23%; IC50 (HeLa1.2.11 cells): 15 µM

**Q.** Which results are given for `CC(=O)c1ccc(N(c2ccc(C(C)=O)cc2)c2ccccc2Oc2c([N+](=O)[O-])cc([N+](=O)[O-])cc2[N+](=O)[O-])cc1` [compound 171]?
**A.** inhibition at 50 µM (TRF2): 24.7%; IC50 (HeLa1.2.11 cells): 48 µM

**Q.** How did the inhibition at 50 µM (TRF2) turn out when `O=[N+]([O-])c1cc([N+](=O)[O-])c(Oc2ccccc2N(c2ccccc2)c2ccccc2)c([N+](=O)[O-])c1` [compound 144] was run?
**A.** 38.3%

**Q.** What about the IC50 (HeLa1.2.11 cells) of the same compound?
**A.** 31 µM

**Q.** For `CC(C)(C)c1ccc(Oc2c([N+](=O)[O-])cc([N+](=O)[O-])cc2[N+](=O)[O-])c(N(c2ccccc2)c2ccccc2)c1` [compound 192], which inhibition at 50 µM (TRF2) is on record?
**A.** 33.6%

**Q.** And the IC50 (HeLa1.2.11 cells)?
**A.** 24 µM

**Q.** Which inhibition at 50 µM (TRF2) does the source give for `Cc1ccc(N(c2ccccc2)c2ccccc2Oc2c([N+](=O)[O-])cc([N+](=O)[O-])cc2[N+](=O)[O-])cc1` [compound 145] here?
**A.** 38.7%

**Q.** What about the IC50 (HeLa1.2.11 cells) of the same compound?
**A.** 26 µM
